Test results reported in patent publication US20140357713A1, “ANTIMICROBIAL COMPOUNDS AND METHODS OF USE” (NexMed Holdings, Inc., priority 2012, published 2014).
Converted amounts (≈) assume the structure as drawn. Counter-ions that a name gives are not always drawn. Like-named read-outs stand apart in the source and are kept apart here. Values belong to the compound of their own block, whether it stands above or below them.

Columns and labels:
[1] = test system: Candida albicans (ATCC 90029); experiment: Minimum inhibitory concentration (MIC) assay, Example 33; type: cell-based
Procedure: (§1) Thirty compounds were tested for antimicrobial activity using standard procedures and standard strains for both the minimum inhibitory concentration (MIC) assay and a time kill study. Both the MIC assay and the time kill study were performed according to Clinical and Laboratory Standards Institute (CLSI) guidelines. Three bacteria strains, Escherichia coli (ATCC 25922), Pseudomonas aeruginosa (ATCC 27853), Staphulococcus aureus (ATCC 29213), and two fungus strains, Candida albicans (ATCC 90029) and Aspergillus niger (CMCC 98003), were used in the experiments.
(§2) Preparation of cultures. Before the experiment, two days for the bacteria strains and five days for fungus strains, an aliquot was removed from the cultures frozen at −80° C. Medium was added to the surface of an appropriate agar plate and streaked with the aliquot. The plate was incubated for 20 to 24 hrs at 35±2° C. for bacteria or for 5 days at 26-30° C. in incubator for fungus. From the resulting growth on each plate, one isolated colony of similar morphology was selected and re-streaked onto a fresh agar plate using a sterile disposable loop. The plate was incubated 20 to 24 hrs at 35±2° C. or for 5 days at 26-30° C. in an incubator.
(§3) Preparation of Assay Plates with Medium and Drugs. On the day of the assay, CAMHB medium or RPMI 1640 medium was removed from 4′C storage and allowed to reach room temperature. Ninety microliters (μL) of room temperature CAMHB or RPMI 1640 (supplemented with the appropriate concentration of DMSO, if required) were added to rows B-G of each 96-well microtiter plate. Using a pipette, duplicate 180 μL aliquots of each drug stock solution were added to column 1 (e.g. A1 and B1 or C1 and D1 or E1 and F1 or G1 and H1). Using a multichannel pipette or the Provision 2000 liquid handler, serial 2-fold dilutions (90 μL) were performed in each row across the plate to row G. Eighty μL of compounds dilutions were transferred to a 96-deep well plate. Medium, 1,520 μL of CAMHB or RPMI 1640, was added to each well. The contents of the wells were mixed thoroughly. A 50 μL aliquot of each of the resulting mixtures was transferred to a 96-well assay plate.
For Candida albicans, a sterile inoculating loop was used to transfer growth from an agar plate culture into a tube with RPMI1640 medium. This inoculum was adjusted so that its density at 530 nm was in the ranges from 0.08 to 0.13. The resulting suspension was diluted 1:50 and further diluted 1:20 with the medium to obtain two times test inoculums.
(§4) For Aspergillus niger, sporulating colonies were covered with RPMI 1640, and a suspension was prepared by gently probing the colonies with the tip of a transfer pipette. The suspension was transferred to a sterile tube and mixed with a vortex mixer for 15 seconds. The densities at 530 nm were adjusted to 0.09-0.13 for each sample. The resulting suspension was diluted 1:50 with the medium to obtain two times test inoculums. Fifty μL/well of this inoculum suspension was added to wells of drug-containing plates (1:2 dilution). Plates were incubated at 35° C. for the appropriate times. The MIC was read and recorded according to CLSI guidelines.
(§5) The MIC values for thirty compounds against Escherichia coli, Pseudomonas aeruginosa, Staphulococcus aureus, Candida albicans, and Aspergillus niger were recorded and are presented in Table 3 and Table 4.

[2] = test system: Aspergillus niger (CMCC 98003); experiment: as above; type: cell-based
Procedure: as §1, §2, §3, §4, §5

[3] = test system: Escherichia coli (ATCC 25922); experiment: as above; type: cell-based; settings: for MIC: Table 19 summary of Example 33 and Example 35
Procedure: as §1, §2, §3
(§6) For bacteria, a sterile inoculating loop was used to transfer growth from an agar plate culture into about 5 mL of test medium. Using a turbidity meter, this inoculum was adjusted so that its density (600 nm) was equivalent to a 0.5 McFarland barium sulfate standard (0.08-0.13). The resulting suspension was diluted 1:100 into medium to obtain two times test inoculums.
as §4, §5

[4] = test system: Pseudomonas aeruginosa (ATCC 27853); experiment: as above; type: cell-based; settings: for MIC: Table 19 summary
Procedure: as §1, §2, §3, §6, §4, §5

[5] = test system: Staphulococcus aureus (ATCC 29213); experiment: as above; type: cell-based, Staphylococcus aureus; settings: for MIC: Table 19 summary
Procedure: as §1, §2, §3, §6, §4, §5

[6] = test system: Staphylococcus aureus (ATCC 29213); experiment: Time kill study, Example 33 (0 to 5 min); type: cell-based; settings: 1×MIC
Procedure: as §1
(§7) The viable counts in Log10 CFU/mL at each time point were recorded.
(§8) Time kill studies. Strain suspensions were prepared as described above for the MIC test, and strain suspensions and compound solutions were mixed in the same volume. Samples were removed at specified times including 0 min, 30 sec, 1 min and 5 mins, were diluted in the test medium and streaked on agar. Colonies were counted after 24 to 48 hrs of incubation. […]

[7] = test system: Escherichia coli (ATCC 25922); experiment: Time kill study, Example 33 (0 to 5 min); type: cell-based; settings: 1×MIC
Procedure: as §1, §7, §8

[8] = test system: Pseudomonas aeruginosa (ATCC 27853); experiment: Time kill study, Example 33 (0 to 5 min); type: cell-based; settings: 1×MIC
Procedure: as §1, §7, §8

pH (Table 1) = type: physicochemical
[9] = Table 19 summary, methanesulfonate

- MIC ([1]; Candida albicans, ATCC90029, n = 1, read-out: MIC Candida albicans): 0.25 µg/mL (≈ 0.816 µM)
- MIC ([1]; Candida albicans, ATCC90029, n = 2, read-out: MIC Candida albicans): 0.25 µg/mL (≈ 0.816 µM)
- MIC ([2]; Aspergillus niger, CMCC98003, n = 1, read-out: MIC Aspergillus niger): > 4000 µg/mL
- MIC ([2]; Aspergillus niger, CMCC98003, n = 2, read-out: MIC Aspergillus niger): > 4000 µg/mL
Compound: OC(Cn1cncn1)(Cn1cncn1)c1ccc(F)cc1F [Fluconazole, reference compound]

Compound: CCCCCCCCCCCCOC(=O)C(C)N(C)C (stereo not drawn) [Nex-20, Dodecyl 2-(dimethylamino)propanoate maleate]
- MIC ([1]; Table 19 summary, maleate): 12500 µg/mL
- MIC Candida albicans ([1]; n = 1, maleate): 12500 µg/mL
- MIC Candida albicans ([1]; n = 2, maleate): 12500 µg/mL
- MIC ([3]; maleate): 1560 µg/mL
- MIC E. coli ([3]; n = 1, maleate): 1560 µg/mL
- MIC E. coli ([3]; n = 2, maleate): 1560 µg/mL
- MIC ([4]; maleate): 6250 µg/mL
- MIC P. aeruginosa ([4]; n = 1, maleate): 6250 µg/mL
- MIC P. aeruginosa ([4]; n = 2, maleate): 6250 µg/mL
- MIC S. aureus ([5]; n = 1, maleate): 3130 µg/mL
- MIC S. aureus ([5]; n = 2, maleate): 1560 µg/mL
- MIC ([2]; Aspergillus niger, CMCC98003, Table 19 summary, read-out: MIC): > 12500 µg/mL
- MIC Aspergillus niger ([2]; n = 1, maleate): >12500 µg/mL
- Viable counts, Staphylococcus aureus time kill study ([6]; 0.5 min, maleate): 6.18 Log10 CFU/mL
- Viable counts, Staphylococcus aureus time kill study ([6]; 1 min, maleate): 6.15 Log10 CFU/mL
- Viable counts, Staphylococcus aureus time kill study ([6]; 5 min, maleate): 5.61 Log10 CFU/mL
- Viable counts, Staphylococcus aureus time kill study ([6]; time 0, maleate): 6.15 Log10 CFU/mL
- Viable counts, Escherichia coli time kill study ([7]; 0.5 min, maleate): 5.84 Log10 CFU/mL
- Viable counts, Escherichia coli time kill study ([7]; 1 min, maleate): 5.92 Log10 CFU/mL
- Viable counts, Escherichia coli time kill study ([7]; 5 min, maleate): 4.37 Log10 CFU/mL
- Viable counts, Escherichia coli time kill study ([7]; time 0, maleate): 5.86 Log10 CFU/mL
- Viable counts, Pseudomonas aeruginosa time kill study ([8]; 0.5 min, maleate): <4.0 Log10 CFU/mL
- Viable counts, Pseudomonas aeruginosa time kill study ([8]; 1 min, maleate): 3.7 Log10 CFU/mL
- Viable counts, Pseudomonas aeruginosa time kill study ([8]; 5 min): <3.52 Log10 CFU/mL
- Viable counts, Pseudomonas aeruginosa time kill study ([8]; time 0, maleate): 5.56 Log10 CFU/mL
- pH (pH (Table 1); maleate): 3.39

Compound: CCCCCCCCCCCCOC(=O)C(C)N(C)C (stereo not drawn) [Nex-22, Dodecyl 2-(dimethylamino)propanoate methanesulfonate]
- MIC [1, 9]: >12500 µg/mL
- MIC Candida albicans ([1]; n = 1, methanesulfonate): >12500 µg/mL
- MIC Candida albicans ([1]; n = 2, methanesulfonate): >12500 µg/mL
- MIC ([3]; methanesulfonate): 3130 µg/mL
- MIC E. coli ([3]; n = 1, methanesulfonate): 3130 µg/mL
- MIC E. coli ([3]; n = 2, methanesulfonate): 3130 µg/mL
- MIC ([4]; methanesulfonate): 6250 µg/mL
- MIC P. aeruginosa ([4]; n = 1, methanesulfonate): 6250 µg/mL
- MIC P. aeruginosa ([4]; n = 2, methanesulfonate): 6250 µg/mL
- MIC ([5]; methanesulfonate): 3130 µg/mL
- MIC S. aureus ([5]; n = 1, methanesulfonate): 3130 µg/mL
- MIC S. aureus ([5]; n = 2, methanesulfonate): 3130 µg/mL
- MIC [2, 9]: >12500 µg/mL
- MIC Aspergillus niger ([2]; n = 1, methanesulfonate): >12500 µg/mL
- Viable counts, Staphylococcus aureus time kill study ([6]; 0.5 min, methanesulfonate): 6.2 Log10 CFU/mL
- Viable counts, Staphylococcus aureus time kill study ([6]; 1 min, methanesulfonate): 6.18 Log10 CFU/mL
- Viable counts, Staphylococcus aureus time kill study ([6]; 5 min, methanesulfonate): 6.21 Log10 CFU/mL
- Viable counts, Staphylococcus aureus time kill study ([6]; time 0, methanesulfonate): 6.08 Log10 CFU/mL
- Viable counts, Escherichia coli time kill study ([7]; 0.5 min, methanesulfonate): 4.6 Log10 CFU/mL
- Viable counts, Escherichia coli time kill study ([7]; 1 min, methanesulfonate): <3.70 Log10 CFU/mL
- Viable counts, Escherichia coli time kill study ([7]; 5 min, methanesulfonate): <3.52 Log10 CFU/mL
- Viable counts, Escherichia coli time kill study ([7]; time 0, methanesulfonate): 5.78 Log10 CFU/mL
- Viable counts, Pseudomonas aeruginosa time kill study ([8]; 0.5 min, methanesulfonate): <4.0 Log10 CFU/mL
- Viable counts, Pseudomonas aeruginosa time kill study ([8]; 1 min, methanesulfonate): <3.70 Log10 CFU/mL
- Viable counts, Pseudomonas aeruginosa time kill study ([8]; time 0, methanesulfonate): 5.64 Log10 CFU/mL
- pH (pH (Table 1); methanesulfonate): 3.25

Compound: CCCCCCCCCCCCOC(=O)C(C)N(C)C (stereo not drawn) [Nex-30, Dodecyl 2-(dimethylamino)propanoate ethanesulfonate]
- MIC ([1]; Table 19 summary): >12500 µg/mL
- MIC Candida albicans ([1]; n = 1): >12500 µg/mL
- MIC Candida albicans ([1]; n = 2): >12500 µg/mL
- MIC [3]: 3130 µg/mL
- MIC E. coli ([3]; n = 1): 3130 µg/mL
- MIC E. coli ([3]; n = 2): 3130 µg/mL
- MIC [4]: 6250 µg/mL
- MIC P. aeruginosa ([4]; n = 1): 6250 µg/mL
- MIC P. aeruginosa ([4]; n = 2): 6250 µg/mL
- MIC [5]: 3130 µg/mL
- MIC S. aureus ([5]; n = 1): 3130 µg/mL
- MIC S. aureus ([5]; n = 2): 3130 µg/mL
- MIC ([2]; Table 19 summary): >12500 µg/mL
- MIC Aspergillus niger ([2]; n = 1): >12500 µg/mL
- MIC Aspergillus niger ([2]; n = 2): >12500 µg/mL
- Viable counts, Staphylococcus aureus time kill study ([6]; 0.5 min): 6.23 Log10 CFU/mL
- Viable counts, Staphylococcus aureus time kill study ([6]; 1 min): 6.22 Log10 CFU/mL
- Viable counts, Staphylococcus aureus time kill study ([6]; 5 min): 6.21 Log10 CFU/mL
- Viable counts, Staphylococcus aureus time kill study ([6]; time 0): 6.24 Log10 CFU/mL
- Viable counts, Escherichia coli time kill study ([7]; 0.5 min): 5.46 Log10 CFU/mL
- Viable counts, Escherichia coli time kill study ([7]; 1 min): 3.7 Log10 CFU/mL
- Viable counts, Escherichia coli time kill study ([7]; 5 min): <3.52 Log10 CFU/mL
- Viable counts, Escherichia coli time kill study ([7]; time 0): 5.83 Log10 CFU/mL
- Viable counts, Pseudomonas aeruginosa time kill study ([8]; 0.5 min): <4.0 Log10 CFU/mL
- Viable counts, Pseudomonas aeruginosa time kill study ([8]; 1 min): <3.70 Log10 CFU/mL
- Viable counts, Pseudomonas aeruginosa time kill study ([8]; 5 min): <3.52 Log10 CFU/mL
- Viable counts, Pseudomonas aeruginosa time kill study ([8]; time 0): 5.67 Log10 CFU/mL
- pH (pH (Table 1)): 3.79
